From EP0429987B1, “5,11-Dihydro-6H-dipyrido[3,2-b:2',3'-e] [1,4]diazepines and their use in the prevention or treatment of HIV infection” (priority 1989, dated 1991)

What was measured:
[1] = tested on: HTLV-IIIB strain of HIV-1; test: Human T-Cell Culture Assay: inhibition of syncytia formation in c8166 cells; assay type: cell-based; settings: Human immunodeficiency virus 1, IIIB, 96 h, four days after virus challenge
Protocol: In order to confirm that compounds which are active in the RT Assay also have the ability to inhibit HIV replication in a living system, compounds according to the invention were also tested in the human T-Cell Culture Assay described below.
Assay Theory: Formation of syncytia is a feature of in vitro cultures of CD4+ T-cells infected with HIV-1. In this assay, T-cells are treated with a putative replication inhibiting compound and then infected with HIV-1. After incubation, the culture is checked for the formation of syncytia. The absence or reduction in the number of syncytia is used as a measure of the test compound's ability to inhibit HIV replication.
Assay Method: The target cells, designated c8166, are a sub-clone of human lymphoma cells of T-cell origin and are established at an initial density of 5x10^4 per 100 ul in RPMI 1640 (+ 10% fetal bovine serum) culture medium in 96 well flat bottom plates. A selected amount of test compound, dissolved in DMSO, is included. After 24 hours, 50-100 TCID50's (the dose that results in induced effect in 50% of test cultures) of the HTLV-IIIB strain of HIV-1 (2) are inoculated into each culture. Control cultures receive compound or virus only. Four days after virus challenge, cultures are visually examined for the frequency and distribution of virus-induced giant cell syncytia. The percent inhibition by the test compound is determined by comparison with control values. Confirmation of the presence or absence of virus replication is accomplished by harvesting the cell free culture fluids from all experimental groups to determine the presence or absence of infectious progeny through the induction of syncytia formation in secondary human T-cell cultures after 3 days.

HIV-1 RT = target: T1, HIV-1 RT (Human immunodeficiency virus type 1 group M subtype B, UniProt P03367); test: Reverse Transcriptase (RT) Assay: inhibition of RNA-dependent DNA polymerase activity; assay type: biochemical; settings: for inhibition at 10 µg/mL: read-out: RT Assay % inhibition @ 10 µg/ml; for inhibition at 1.25 µM: @ 1.25µM (footnote +)
T1 construct: Reverse transcriptase enzyme from the LAV strain of Human Immunodeficiency Virus (HIV-1) (1) was isolated; made in house; host or cells: E. coli JM109, clone pBRTprtl+ in vector pIBI21 (lac promoter, IPTG induction)
Excerpt: Utilizing the Reverse Transcriptase (RT) Assay described below, compounds can be tested for their ability to inhibit the RNA-dependent DNA polymerase activity of HIV-1 RT.
Among the enzymes for which Human Immunodeficiency Virus (HIV-1) encodes is a reverse transcriptase (1), so-named because it transcribes a DNA copy from an RNA template. This activity can be quantitatively measured in a cell-free enzyme assay, which has been previously described (2), and is based upon the observation that reverse transcriptase is able to use a synthetic template [poly r(C) primed with oligo d(G)] to transcribe a radio-labelled, acid-precipitable DNA strand utilizing ^3H-dGTP as a substrate.
Reverse transcriptase enzyme from the LAV strain of Human Immunodeficiency Virus (HIV-1) (1) was isolated from the bacterial strain JM109 (3) expressing the DNA clone pBRTprtl+ (2) which is under the control of the lac promotor in the expression vector pIBI21 (4). An overnight culture grown in 2XYT medium (37°C, 225 rpm) (5) supplemented with 100 µg/ml ampicillin for positive selection is inoculated at a 1:40 dilution into M9 medium supplemented with 10µg/ml thiamine, 0.5% casamino acids, and 50 µg/ml ampicillin (5). The culture is incubated (37°C, 225 rpm) until it reaches an OD540 of 0.3-0.4. At that time the repressor inhibitor IPTG (isopropyl β-D-thiogalactopyranoside) is added to 0.5mM, and the mixture is incubated for 2 additional hours. Bacteria are pelleted, resuspended in a 50mM Tris, 0.6mM EDTA, 0.375M NaCl buffer and digested by the addition of lysozyme (1mg/ml) for 30 minutes on ice. The cells are lysed by the addition of 0.2% NP-40 and brought to 1M NaCl.
After removal of the insoluble debris by centrifugation, the protein is precipitated by the addition of 3 volumes of saturated aqueous ammonium sulfate. The enzyme is pelleted, resuspended in RT buffer (50mM Tris pH 7.5, 1mM EDTA, 5mM DTT, 0.1% NP-40, 0.1M NaCl, and 50% glycerol), and stored at -70°C for further use.
The 2X concentrated stock reaction mixture is aliquoted and stored at -20°C. […] This enzyme assay has been adapted to a 96 well microtiter plate system, and has been previously described (6). Tris buffer (50 mM, pH 7.4), vehicle (solvent diluted to match the compound dilution), or compounds in vehicle are dispensed into 96-well microtiter plates (10µl/well; 3 wells/ compound). The HIV-1 RT enzyme is thawed, diluted in 50mM Tris pH 7.4 so that fifteen µl of diluted enzyme contain 0.001 Unit (one unit is that amount of enzyme to transform 1 micromole of substrate per minute at 25°C), and fifteen µl are dispensed per well. Twenty µl of 0.12-0.5M EDTA are added to the first three wells of the microtiter plate. EDTA chelates the Mg^++ present and prevents reverse transcription. This group serves as background polymerization which is subtracted from all other groups. Twenty-five µl of the 2X reaction mixture are added to all wells and the assay is allowed to incubate at room temperature for 60 minutes. The assay is terminated by precipitating the DNA in each well with 50µl of 10% trichloracetic acid (TCA) (10% w/v) in sodium pyrophosphate (1% w/v). The microtiter plate is incubated for 15 minutes at 4°C and the precipitate is fixed onto #30 glass fiber paper (Schleicher & Schuell) using a Skatron semi-automatic harvester. The filters are then washed with additional TCA (5%) containing sodium pyrophosphate (1%), rinsed with aqueous ethanol (70%), dried, and transferred to scintillation vials (6). Each vial receives 2 mls of scintillation cocktail and is counted in a Beckman beta counter.
The calculation for percent inhibition is as follows: %inhibition =(CPM Mean Test Value - CPM Mean Control Value X100)/(CPM Mean Control Value) [formula]

[2] = MTT Assay for Cellular Cytotoxicity; settings: human, h9 cells
Protocol: In order to roughly assess the cytotoxicity of the compounds provided by the invention, several such compounds were tested in the MTT Cellular Cytotoxicity Assay described below.
The MTT [3-(4,5-dimethylthiazol-2-yl)-2,5 diphenyl tetrazolium bromide) assay is based on cleavage of tetrazolium bromide by metabolically active cells, resulting in a highly quantitative blue color. This assay has been previously described (1) but has been optimized for the purposes of the testing reported herein.
The H9 cell line (2), an established human lymphoma suspension cell line grown in RPMI 1640 supplemented with 10% fetal bovine serum, is used as the target cell line in the assay. Cells (100 µl) are plated in microtest plate wells at a concentration of 10^5 cells per ml in the presence of varying concentrations of inhibitor. The cells are incubated at 37°C in a humidified CO2 incubator. Five days later, 20µl of MTT (5mg/ml in RPMI 1640, sonicated, 0.2 micron filtered, and stored at 4°C) is added to each well. After 4 hours additional incubation at 37°C, 60µl of Triton-X is added to each well and thoroughly mixed to aid the solubilization of the crystals. Absolute ethanol (5µl) is added to each well and the resulting mixture is incubated for 30 minutes at 60°C and immediately read on a plate reader (Dynatech) at a wavelength of 570nm.
Data from this assay are used to generate a nonlinear regression analysis which yields an EC50.

| SMILES | inhibition at 10 µg/mL (HIV-1 RT) | inhibition at 1.25 µM (HIV-1 RT) | inhibition at 3 µg/mL [1] | CC50 at 120 h [2] | RT Assay % inhibition @ 10 µg/ml (HIV-1 RT; @ 10 µg/ml) |
| --- | --- | --- | --- | --- | --- |
| CCN1c2ncccc2C(=O)Nc2c(C)ccnc21 [Example 2, 5,11-Dihydro-11-ethyl-4-methyl-6H-dipyrido-[3,2-b:2',3'-e][1,4]diazepin-6-one] | 100% | – | 100% | 200 µM | – |
| Cc1ccnc2c1NC(=O)c1cccnc1N2C1CC1 [Example 3, 11-Cyclopropyl-5,11-dihydro-4-methyl-6H-dipyrido[3,2-b:2',3'-e][1,4]diazepin-6-one] | – | – | 100% | 250 µM | 100% |
| CCN1c2ncccc2C(=O)N(C)c2ccc(N3CCCC3)nc21 [Example 6, 5,11-Dihydro-11-ethyl-5-methyl-2-(N-pyrrolidino)-6H-dipyrido[3,2-b:2',3'-e][1,4]diazepin-6-one] | – | 91% | 100% | 45 µM | – |
| CCN1c2ncccc2C(=O)Nc2c(C)cc(OC)nc21 [Example 7, 5,11-Dihydro-11-ethyl-2-methoxy-4-methyl-6H-dipyrido[3,2-b:2',3'-e][1,4]diazepin-6-one] | – | 96% | 100% | 350 µM | – |

More lines, main results first:

| inhibition at 10 µg/mL (HIV-1 RT) | inhibition at 1.25 µM (HIV-1 RT) | SMILES | inhibition at 3 µg/mL [1] | CC50 at 120 h [2] | RT Assay % inhibition @ 10 µg/ml (HIV-1 RT; @ 10 µg/ml) |
| --- | --- | --- | --- | --- | --- |
| 99% | – | CCN1c2ncccc2NC(=O)c2cccnc21 [Example 14] | 100% | – | – |
| 100% | – | CN1C(=O)c2cccnc2N(C2CC2)c2ncccc21 [Example 47] | 100% | – | – |
